Experimental data reported in ChEMBL document CHEMBL1201862, “PubChem BioAssay data set” (2004).
Activity calls are given as the source filed them.

Experiments:
[1] = target: Glycogen synthase kinase-3 alpha (Homo sapiens, UniProt P49840); experiment: Inhibition of Human GSK-3 alpha Activity Measured in Biochemical System Using Microfluidics - 2063-06_Inhibitor_Dose_DryPowder_Activity. [Related pubchem assays (depositor defined):AID2709]
[2] = target: Glycogen synthase kinase-3 beta (Homo sapiens, UniProt P49841); experiment: Inhibition of Human GSK-3 beta Activity Measured in Biochemical System Using Microfluidics - 2063-05_Inhibitor_Dose_DryPowder_Activity. [Related pubchem assays (depositor defined):AID2709]
[3] = target: T1, Beta-adrenergic receptor kinase 1 (Homo sapiens, UniProt P25098); experiment: aptamer displacement from bead-bound GRK2 – biochemical, cherry pick 1, bead flow cytometry, dose response (AID 504500)
[4] = target: T1, Beta-adrenergic receptor kinase 1; experiment: GRK2 inhibitors displacing RNA aptamer, dose response, biochemical, flow cytometry beads, FAM-aptamer, powder set 1 (AID 588720)
[5] = target: T2, Carboxy-terminal domain RNA polymerase II polypeptide A small phosphatase 1 (Homo sapiens, UniProt Q9GZU7); experiment: inhibitors of CTDSP1, concentration-response testing, biochemical assay, absorbance-based, actives from ultra-high-throughput screening (AID 540297); type: functional
T2 sequence (Q9GZU7 whole entry): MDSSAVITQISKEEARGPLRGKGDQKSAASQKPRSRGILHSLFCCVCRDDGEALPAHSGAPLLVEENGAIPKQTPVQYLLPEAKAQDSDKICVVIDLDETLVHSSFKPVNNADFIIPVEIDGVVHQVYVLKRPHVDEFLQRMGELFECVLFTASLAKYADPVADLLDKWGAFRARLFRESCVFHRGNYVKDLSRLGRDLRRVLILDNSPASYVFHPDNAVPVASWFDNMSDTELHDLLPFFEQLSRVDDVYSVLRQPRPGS

[6] = target: DNA (cytosine-5)-methyltransferase 1 (Homo sapiens, UniProt P26358); experiment: DNMT1 methyltransferase inhibitors, confirmation, biochemical, fluorescent molecular beacon (AID 602386); type: functional
[7] = test system: CHO; experiment: cytotoxicity in TLR9-MyD88 CHO cells, dose response, cytotoxicity control for TLR9-MyD88 binding inhibitor project, cell-based, luminescence (AID 588339); type: functional, hamster; conditions: Cricetulus griseus;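 note: CHO cells stably coexpressing TLR9 and MyD88 fusions from primary screen; compound exposure lasted 48 hours before viability readout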
[8] = test system: INS1; experiment: protection of INS-1E cells from cytokine death, dose response, ATP luminescence, dry powder (AID 488844); type: functional, cell-based; conditions: Rattus norvegicus
[9] = inhibitors of cytokine-induced nitrite release, dose response, cell-based, Griess absorbance, INS-1E, dry powder, set 3 (AID 488870); type: functional; conditions: Rattus norvegicus
[10] = test system: INS1; experiment: protection from cytokine-driven beta-cell apoptosis, dose response, JC-1 fluorescence, INS-1E, dry powder, set 2 (AID 488867); type: functional, cell-based; conditions: Rattus norvegicus
[11] = test system: INS1; experiment: inhibitors of cytokine-induced nitrite release, dose response, cell-based, Griess absorbance, INS-1E, dry powder, set 2 (AID 488868); type: functional; conditions: Rattus norvegicus
[12] = target: DNA topoisomerase (Yersinia pestis, UniProt A0A2S9PM60); experiment: Y. pestis Topo-I inhibitors, cleavage product readout, dose response, biochemical, cherry-pick (AID 588525)
[13] = target: T3, Sentrin-specific protease 8 (Homo sapiens, UniProt Q96LD8); experiment: SENP8 protease inhibitors, SAR follow-up, biochemical, luminescence (AID 504501); type: functional
T3 sequence (Q96LD8 whole entry): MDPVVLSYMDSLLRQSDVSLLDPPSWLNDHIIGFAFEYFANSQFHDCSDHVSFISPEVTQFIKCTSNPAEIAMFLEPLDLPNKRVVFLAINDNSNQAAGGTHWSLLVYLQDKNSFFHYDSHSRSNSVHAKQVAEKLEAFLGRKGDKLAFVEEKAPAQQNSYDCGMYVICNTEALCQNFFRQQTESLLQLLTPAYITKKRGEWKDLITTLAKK

[14] = target: T3, Sentrin-specific protease 8; experiment: SENP8 protease inhibitors, SAR follow-up, biochemical, luminescence, set 2 (AID 588601); type: functional
[15] = target: T4, Caspase-3 (Homo sapiens, UniProt P42574); experiment: SAR Analysis of small molecule inhibitors of Sentrin-specific proteases (SENPs) using a Caspase-3 Selectivity assay. [Related pubchem assays (depositor defined):AID2540, AID2599, AID434973, AID489001]; type: functional
T4 sequence (P42574 whole entry): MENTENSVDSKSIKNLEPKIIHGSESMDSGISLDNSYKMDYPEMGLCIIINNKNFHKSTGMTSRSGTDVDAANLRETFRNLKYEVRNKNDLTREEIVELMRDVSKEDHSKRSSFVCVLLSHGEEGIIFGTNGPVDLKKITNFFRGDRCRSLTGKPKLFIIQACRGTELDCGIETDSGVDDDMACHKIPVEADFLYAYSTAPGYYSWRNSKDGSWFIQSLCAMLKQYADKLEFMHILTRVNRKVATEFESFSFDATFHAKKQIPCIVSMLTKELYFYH

[16] = target: T5, Sentrin-specific protease 7 (Homo sapiens, UniProt Q9BQF6); experiment: SENP7 protease inhibitors, SAR follow-up, biochemical, luminescence, set 2 (AID 588600); type: functional
T5 sequence (Q9BQF6 whole entry): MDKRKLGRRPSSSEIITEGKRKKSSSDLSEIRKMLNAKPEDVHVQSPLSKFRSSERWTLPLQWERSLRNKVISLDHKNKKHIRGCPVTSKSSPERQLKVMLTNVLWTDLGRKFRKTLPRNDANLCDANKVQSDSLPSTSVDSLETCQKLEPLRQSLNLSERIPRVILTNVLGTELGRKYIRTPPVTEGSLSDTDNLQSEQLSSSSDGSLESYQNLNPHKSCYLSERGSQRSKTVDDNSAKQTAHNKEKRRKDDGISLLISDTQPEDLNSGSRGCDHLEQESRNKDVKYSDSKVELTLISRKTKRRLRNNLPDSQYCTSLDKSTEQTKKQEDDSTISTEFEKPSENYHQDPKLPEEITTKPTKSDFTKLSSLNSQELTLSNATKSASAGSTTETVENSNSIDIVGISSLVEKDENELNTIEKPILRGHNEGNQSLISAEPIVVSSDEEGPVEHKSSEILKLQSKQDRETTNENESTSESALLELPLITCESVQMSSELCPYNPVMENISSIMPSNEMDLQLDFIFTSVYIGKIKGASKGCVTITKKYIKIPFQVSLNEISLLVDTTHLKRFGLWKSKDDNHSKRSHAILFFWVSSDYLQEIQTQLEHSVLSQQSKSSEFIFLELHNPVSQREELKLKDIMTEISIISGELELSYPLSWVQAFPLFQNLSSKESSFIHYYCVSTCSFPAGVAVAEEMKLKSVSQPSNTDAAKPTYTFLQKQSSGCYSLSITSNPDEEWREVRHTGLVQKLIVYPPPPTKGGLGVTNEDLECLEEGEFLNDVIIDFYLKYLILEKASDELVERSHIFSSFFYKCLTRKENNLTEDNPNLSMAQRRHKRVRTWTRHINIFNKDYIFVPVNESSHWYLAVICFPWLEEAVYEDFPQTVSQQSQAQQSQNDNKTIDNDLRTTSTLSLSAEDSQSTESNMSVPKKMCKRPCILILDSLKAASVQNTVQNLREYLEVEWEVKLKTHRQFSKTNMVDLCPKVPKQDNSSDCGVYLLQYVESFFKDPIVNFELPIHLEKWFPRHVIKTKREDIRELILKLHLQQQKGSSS

[17] = target: T6, Sentrin-specific protease 6 (Homo sapiens, UniProt Q9GZR1); experiment: SAR Analysis of small molecule inhibitors of Sentrin-specific protease 6 (SENP6) using a Luminescent assay. [Related pubchem assays (depositor defined):AID2582, AID2599]; type: functional
T6 sequence (Q9GZR1 whole entry): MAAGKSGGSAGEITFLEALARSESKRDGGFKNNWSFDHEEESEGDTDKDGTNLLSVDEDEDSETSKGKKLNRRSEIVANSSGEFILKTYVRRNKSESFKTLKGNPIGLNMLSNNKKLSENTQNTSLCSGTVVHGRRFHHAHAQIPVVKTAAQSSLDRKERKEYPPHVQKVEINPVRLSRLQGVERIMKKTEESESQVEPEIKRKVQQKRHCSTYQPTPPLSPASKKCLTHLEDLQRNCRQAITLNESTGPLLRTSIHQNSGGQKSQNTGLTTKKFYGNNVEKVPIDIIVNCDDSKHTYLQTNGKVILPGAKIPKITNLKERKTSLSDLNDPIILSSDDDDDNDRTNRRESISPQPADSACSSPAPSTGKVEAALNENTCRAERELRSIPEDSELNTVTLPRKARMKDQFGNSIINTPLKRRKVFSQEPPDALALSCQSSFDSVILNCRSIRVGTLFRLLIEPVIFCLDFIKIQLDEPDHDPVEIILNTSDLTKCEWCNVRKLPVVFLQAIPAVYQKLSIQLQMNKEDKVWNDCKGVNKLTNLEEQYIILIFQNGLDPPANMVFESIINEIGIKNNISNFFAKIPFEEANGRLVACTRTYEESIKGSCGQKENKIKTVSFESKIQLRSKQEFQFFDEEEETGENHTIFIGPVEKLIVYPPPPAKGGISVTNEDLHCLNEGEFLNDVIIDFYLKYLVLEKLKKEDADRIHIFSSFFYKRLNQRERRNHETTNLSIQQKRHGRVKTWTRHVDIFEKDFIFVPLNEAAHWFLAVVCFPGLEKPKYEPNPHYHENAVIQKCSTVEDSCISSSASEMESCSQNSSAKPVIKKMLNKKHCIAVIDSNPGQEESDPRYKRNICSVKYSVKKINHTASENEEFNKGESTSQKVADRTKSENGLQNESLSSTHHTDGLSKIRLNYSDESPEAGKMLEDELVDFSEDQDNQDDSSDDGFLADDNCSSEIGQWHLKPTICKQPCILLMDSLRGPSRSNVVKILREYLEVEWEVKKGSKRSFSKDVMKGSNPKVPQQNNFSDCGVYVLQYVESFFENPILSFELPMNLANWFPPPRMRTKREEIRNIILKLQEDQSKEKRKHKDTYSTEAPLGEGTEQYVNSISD

[18] = target: T5, Sentrin-specific protease 7; experiment: SENP7 protease inhibitors, SAR follow-up, biochemical, luminescence (AID 504497); type: functional
[19] = target: DNA dC->dU-editing enzyme APOBEC-3G (Homo sapiens, UniProt Q9HC16); experiment: APOBEC3G deaminase inhibitors, SAR follow-up, biochemical, fluorescence, single-stranded DNA substrate (AID 602136); type: functional; conditions: read-out: IC50_Mean
[20] = target: DNA dC->dU-editing enzyme APOBEC-3A (Homo sapiens, UniProt P31941); experiment: SAR analysis of small molecule inhibitors of APOBEC3A DNA Deaminase via a fluorescence-based single-stranded DNA deaminase assay.; type: functional; conditions: read-out: IC50_Mean
[21] = THP-1 cell cytotoxicity, cytotoxicity control, set 4 (AID 504911); type: functional; conditions: Mycobacterium tuberculosis
[22] = THP-1 cell cytotoxicity, dose response, cytotoxicity control, set 3 (AID 504852); type: functional; conditions: Mycobacterium tuberculosis
[23] = Vero cell cytotoxicity, dose response, cytotoxicity control for M. tuberculosis growth inhibitor project, Vero cells, purified and synthesized compounds, set 4 (AID 504854); type: functional; conditions: Mycobacterium tuberculosis
[24] = target: Voltage-gated inwardly rectifying potassium channel KCNH2 (Homo sapiens, UniProt Q12809); conditions: Potency;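 note: confirmatory quantitative high-throughput screen measuring inhibition of hERG channel activity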
Voltage-gated inwardly rectifying potassium channel KCNH2, sequence (Q12809 whole entry): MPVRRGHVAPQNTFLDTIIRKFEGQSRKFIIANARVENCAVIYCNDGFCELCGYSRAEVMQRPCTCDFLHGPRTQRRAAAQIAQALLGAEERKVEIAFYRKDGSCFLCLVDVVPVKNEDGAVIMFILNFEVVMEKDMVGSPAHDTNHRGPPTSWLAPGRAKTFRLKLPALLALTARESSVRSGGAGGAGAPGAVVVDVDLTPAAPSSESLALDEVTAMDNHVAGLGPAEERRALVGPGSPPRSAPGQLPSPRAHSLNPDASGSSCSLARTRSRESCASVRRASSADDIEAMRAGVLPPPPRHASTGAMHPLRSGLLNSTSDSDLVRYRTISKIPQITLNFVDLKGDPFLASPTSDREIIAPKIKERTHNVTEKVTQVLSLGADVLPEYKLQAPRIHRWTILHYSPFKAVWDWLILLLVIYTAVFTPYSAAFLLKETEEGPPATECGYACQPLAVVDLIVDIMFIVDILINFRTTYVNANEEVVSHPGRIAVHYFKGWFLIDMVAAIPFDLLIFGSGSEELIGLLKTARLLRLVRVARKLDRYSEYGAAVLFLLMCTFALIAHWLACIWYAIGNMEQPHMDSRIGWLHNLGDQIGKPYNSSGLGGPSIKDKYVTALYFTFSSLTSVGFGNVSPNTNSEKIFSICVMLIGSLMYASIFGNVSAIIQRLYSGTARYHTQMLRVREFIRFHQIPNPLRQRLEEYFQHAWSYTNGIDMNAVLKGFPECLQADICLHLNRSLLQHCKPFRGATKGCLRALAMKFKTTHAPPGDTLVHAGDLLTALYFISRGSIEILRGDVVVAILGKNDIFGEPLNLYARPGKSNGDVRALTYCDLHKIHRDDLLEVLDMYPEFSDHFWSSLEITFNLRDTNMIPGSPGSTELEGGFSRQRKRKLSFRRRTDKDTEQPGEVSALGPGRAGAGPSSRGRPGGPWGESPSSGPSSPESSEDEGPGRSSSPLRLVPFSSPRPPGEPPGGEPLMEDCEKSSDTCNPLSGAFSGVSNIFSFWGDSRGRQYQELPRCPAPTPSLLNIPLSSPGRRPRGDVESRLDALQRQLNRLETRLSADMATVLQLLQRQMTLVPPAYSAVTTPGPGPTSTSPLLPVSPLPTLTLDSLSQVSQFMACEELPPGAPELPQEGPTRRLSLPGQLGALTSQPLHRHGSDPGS

T1 sequence (P25098 whole entry): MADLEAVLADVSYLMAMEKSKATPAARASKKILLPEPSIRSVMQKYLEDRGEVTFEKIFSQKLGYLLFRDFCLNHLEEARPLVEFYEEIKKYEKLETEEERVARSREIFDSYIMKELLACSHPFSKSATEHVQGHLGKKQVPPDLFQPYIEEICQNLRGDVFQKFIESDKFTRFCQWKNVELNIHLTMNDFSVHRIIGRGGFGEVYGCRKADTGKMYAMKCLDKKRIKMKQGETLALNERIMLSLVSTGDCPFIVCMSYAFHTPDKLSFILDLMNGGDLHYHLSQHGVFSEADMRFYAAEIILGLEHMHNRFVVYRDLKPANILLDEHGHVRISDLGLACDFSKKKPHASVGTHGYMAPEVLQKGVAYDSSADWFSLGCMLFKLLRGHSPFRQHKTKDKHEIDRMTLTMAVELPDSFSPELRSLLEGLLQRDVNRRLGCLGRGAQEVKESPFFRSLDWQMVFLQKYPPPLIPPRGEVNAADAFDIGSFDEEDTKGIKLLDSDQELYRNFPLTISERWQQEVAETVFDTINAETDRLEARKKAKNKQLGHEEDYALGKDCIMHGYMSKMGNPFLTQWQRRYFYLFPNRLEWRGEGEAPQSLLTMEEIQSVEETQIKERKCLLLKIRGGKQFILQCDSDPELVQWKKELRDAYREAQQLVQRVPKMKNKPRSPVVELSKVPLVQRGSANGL
DNA topoisomerase, sequence (A0A2S9PM60 whole entry): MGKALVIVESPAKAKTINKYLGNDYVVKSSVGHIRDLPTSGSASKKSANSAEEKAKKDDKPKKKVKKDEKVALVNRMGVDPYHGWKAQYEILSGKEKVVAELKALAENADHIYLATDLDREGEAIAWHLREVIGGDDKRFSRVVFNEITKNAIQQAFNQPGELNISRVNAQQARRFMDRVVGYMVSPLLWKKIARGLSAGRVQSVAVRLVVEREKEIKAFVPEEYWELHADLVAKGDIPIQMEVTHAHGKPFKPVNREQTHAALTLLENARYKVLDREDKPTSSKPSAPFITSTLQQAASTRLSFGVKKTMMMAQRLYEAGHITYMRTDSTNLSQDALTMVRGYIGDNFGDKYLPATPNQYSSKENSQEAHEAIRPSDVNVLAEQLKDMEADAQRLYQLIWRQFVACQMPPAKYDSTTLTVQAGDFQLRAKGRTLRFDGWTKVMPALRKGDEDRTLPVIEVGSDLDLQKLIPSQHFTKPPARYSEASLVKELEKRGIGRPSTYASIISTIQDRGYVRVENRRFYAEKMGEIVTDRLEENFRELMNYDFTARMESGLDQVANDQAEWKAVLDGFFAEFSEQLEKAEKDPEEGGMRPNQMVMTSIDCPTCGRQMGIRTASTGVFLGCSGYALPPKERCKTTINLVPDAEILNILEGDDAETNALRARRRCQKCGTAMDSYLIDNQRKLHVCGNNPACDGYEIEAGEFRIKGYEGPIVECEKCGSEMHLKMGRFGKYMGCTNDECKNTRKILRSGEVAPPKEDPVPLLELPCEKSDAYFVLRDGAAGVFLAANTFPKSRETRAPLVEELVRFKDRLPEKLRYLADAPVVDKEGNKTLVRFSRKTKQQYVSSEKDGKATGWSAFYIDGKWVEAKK
DNA (cytosine-5)-methyltransferase 1, sequence (P26358 whole entry, the tested form may be a part): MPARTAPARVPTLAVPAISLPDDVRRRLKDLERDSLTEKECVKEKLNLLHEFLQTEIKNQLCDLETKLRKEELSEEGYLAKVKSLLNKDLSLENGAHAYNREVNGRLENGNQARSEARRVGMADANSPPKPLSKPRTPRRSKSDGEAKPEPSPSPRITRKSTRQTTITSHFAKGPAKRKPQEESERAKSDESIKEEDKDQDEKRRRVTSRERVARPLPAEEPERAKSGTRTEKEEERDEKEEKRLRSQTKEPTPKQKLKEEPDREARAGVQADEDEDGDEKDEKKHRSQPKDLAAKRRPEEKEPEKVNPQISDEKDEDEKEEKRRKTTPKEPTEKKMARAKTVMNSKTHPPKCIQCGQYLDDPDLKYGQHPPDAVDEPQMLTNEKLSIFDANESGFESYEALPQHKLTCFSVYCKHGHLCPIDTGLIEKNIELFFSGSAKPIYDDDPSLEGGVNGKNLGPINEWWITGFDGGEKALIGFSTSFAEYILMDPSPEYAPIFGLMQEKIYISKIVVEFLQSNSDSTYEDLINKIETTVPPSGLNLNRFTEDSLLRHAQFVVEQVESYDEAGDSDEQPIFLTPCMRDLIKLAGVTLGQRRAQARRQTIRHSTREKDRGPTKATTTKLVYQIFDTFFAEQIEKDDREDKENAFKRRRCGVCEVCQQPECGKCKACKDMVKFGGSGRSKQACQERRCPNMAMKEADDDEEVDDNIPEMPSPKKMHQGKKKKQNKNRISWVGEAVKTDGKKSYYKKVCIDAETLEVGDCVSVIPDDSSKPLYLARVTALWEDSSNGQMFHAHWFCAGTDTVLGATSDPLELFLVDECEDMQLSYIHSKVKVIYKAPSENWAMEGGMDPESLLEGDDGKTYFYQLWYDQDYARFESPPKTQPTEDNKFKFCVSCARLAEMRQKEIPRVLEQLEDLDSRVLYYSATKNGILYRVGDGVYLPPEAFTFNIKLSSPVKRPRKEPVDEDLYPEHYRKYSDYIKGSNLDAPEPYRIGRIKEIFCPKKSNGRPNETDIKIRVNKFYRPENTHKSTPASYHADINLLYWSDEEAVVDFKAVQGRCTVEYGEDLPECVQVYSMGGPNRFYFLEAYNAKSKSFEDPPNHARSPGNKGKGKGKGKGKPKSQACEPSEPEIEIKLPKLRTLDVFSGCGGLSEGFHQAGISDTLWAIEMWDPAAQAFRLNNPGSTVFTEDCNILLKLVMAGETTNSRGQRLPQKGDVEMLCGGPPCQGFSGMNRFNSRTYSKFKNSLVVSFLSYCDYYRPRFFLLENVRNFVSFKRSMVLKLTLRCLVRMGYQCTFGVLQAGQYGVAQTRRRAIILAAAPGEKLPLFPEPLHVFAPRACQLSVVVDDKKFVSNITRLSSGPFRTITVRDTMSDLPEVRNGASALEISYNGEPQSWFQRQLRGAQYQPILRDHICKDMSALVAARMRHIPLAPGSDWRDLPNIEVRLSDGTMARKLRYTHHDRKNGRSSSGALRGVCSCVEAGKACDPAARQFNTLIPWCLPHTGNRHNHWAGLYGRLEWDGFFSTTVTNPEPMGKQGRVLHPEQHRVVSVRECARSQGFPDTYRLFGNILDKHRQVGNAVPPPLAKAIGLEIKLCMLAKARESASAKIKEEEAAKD
Glycogen synthase kinase-3 beta, sequence (P49841 whole entry): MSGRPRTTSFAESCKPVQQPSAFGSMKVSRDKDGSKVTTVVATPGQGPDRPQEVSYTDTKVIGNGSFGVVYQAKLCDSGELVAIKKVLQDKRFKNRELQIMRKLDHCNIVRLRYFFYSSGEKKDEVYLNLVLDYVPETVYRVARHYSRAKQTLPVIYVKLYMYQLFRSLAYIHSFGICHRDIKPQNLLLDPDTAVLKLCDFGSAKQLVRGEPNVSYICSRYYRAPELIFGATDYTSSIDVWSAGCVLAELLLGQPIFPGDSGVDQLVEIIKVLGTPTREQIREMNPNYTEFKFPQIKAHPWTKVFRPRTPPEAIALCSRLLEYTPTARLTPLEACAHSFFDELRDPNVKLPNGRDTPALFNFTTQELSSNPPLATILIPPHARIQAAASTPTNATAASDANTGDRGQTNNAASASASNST
DNA dC->dU-editing enzyme APOBEC-3A, sequence (P31941 whole entry): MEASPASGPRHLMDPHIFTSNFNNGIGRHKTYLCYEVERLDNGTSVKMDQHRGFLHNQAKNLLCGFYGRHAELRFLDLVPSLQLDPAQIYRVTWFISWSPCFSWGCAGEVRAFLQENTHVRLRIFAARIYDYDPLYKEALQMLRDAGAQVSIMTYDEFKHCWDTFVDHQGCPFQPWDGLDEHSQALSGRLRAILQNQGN

For `CCCn1nc(NC(=O)C(C)C)c2cc3cc(OC)ccc3nc21`, the AC50 [1] was 38.5 µM (active) and the AC50 [2] was 3.25 µM (active).

In the case of `CCN(CC)c1ccc(NC(=O)CCS(=O)(=O)c2ccc(Br)cc2)c(C)c1`, the EC50 [3] was 5.01 µM (active), the EC50 [4] was 0.426 µM (active) and the IC50 [5] was 3.04 µM (active). For the same compound, the IC50 [6] was 8.64 µM (active).

In the case of `Nc1ccc2nc(-c3ccccc3)cnc2c1`, the IC50 [7] was > 49.7 µM (inactive).

With `Cc1ccc(S(=O)(=O)N(C)C[C@@H]2Oc3c(NC(=O)Nc4cccc5ccccc45)cccc3C(=O)N([C@@H](C)CO)C[C@H]2C)cc1` the AC50 [8] was 31.7 µM (active), the AC50 [9] was 32.7 µM (active) and the AC50 [10] was 48.3 µM (active). The AC50 [11] was 69.6 µM (active).

With `COc1cc2nc3n(c(=O)c2cc1OC)-c1cc2ccccc2cc1C(=O)NC3Cc1ccccc1` (centres undefined) the AC50 [12] was 11.8 µM (active).

In the case of `Cc1cccc(-c2noc(/C=C/c3ccccc3)n2)c1`, the IC50 [13] was > 99 µM (inactive), the IC50 [14] was 3.48 µM (active) and the IC50 [15] was 11 µM (active). The IC50 [16] was 4.14 µM (active), the IC50 [17] was 17 µM (active) and the IC50 [18] was 4.9 µM (active).

In the case of `CCCCN1CCc2cc(/C=C3\C(=O)NC(=S)N(C4CCCCC4)C3=O)ccc21`, the IC50 [19] was > 99 µM (inactive) and the IC50 [20] was > 99 µM (inactive).

In the case of `O=C(CSc1nc2c(c(=O)[nH]1)CCCC2)NC1CCCCC1`, the CC50 [21] was > 100 µM (active), the CC50 [22] was > 100 µM (active) and the CC50 [23] was > 100 µM (active).

For `Cn1cc(C(=O)OCC2CCN(CCNS(C)(=O)=O)CC2)c2ccccc21`, the AC50 [24] was 35.5 µM (inconclusive).
